According to ChEMBL document CHEMBL4680145, “Expansion of chemical space based on a pyrrolo[1,2-a]pyrazine core: Synthesis and its anticancer activity in prostate cancer and breast cancer cells” (Eur J Med Chem, 2020):
Activity calls are given as the source filed them. The calls are words filed in the database; no cut-off is given here.

Assays:
MCF7 [1] = assay: Cytotoxicity against human MCF7 cells assessed as cell viability at 30 uM incubated for 48 hrs by MTS assay relative to control; type: functional; settings: read-out: Activity
PC-3 [2] = assay: Cytotoxicity against human PC-3 cells assessed as cell viability at 30 uM incubated for 48 hrs by MTS assay relative to control; type: functional; settings: read-out: Activity
PC-3 [3] = assay: Cytotoxicity against human PC-3 cells assessed as reduction in cell viability incubated for 48 hrs by MTS assay; type: functional, cell-based; settings: PC-3, 48 h
MCF7 [4] = assay: Cytotoxicity against human MCF7 cells assessed as reduction cell viability incubated for 48 hrs by MTS assay; type: functional, cell-based; settings: MCF7, 48 h
PC-3 [5] = assay: Antimigratory activity against human PC-3 cells assessed as reduction in cell migration measured every 2 hrs for 24 hrs by wound healing assay; type: functional, cell-based; settings: dose 1-10 µM
MCF7 [6] = assay: Antimigratory activity against human MCF7 cells assessed as reduction in cell migration measured every 2 hrs for 24 hrs by wound healing assay; type: functional, cell-based; settings: dose 1-10 µM
MCF7 [7] = assay: Induction of apoptosis in human MCF7 cells assessed as increase in caspase-3 activity incubated for 24 hrs by caspase-3 substrate and Hoechst 33342 dye based fluorescence assay; type: functional, cell-based; settings: dose 1-10 µM
MCF7 [8] = assay: Induction of apoptosis in human MCF7 cells assessed as increase in caspase-3 activity at 10 uM incubated for 24 hrs by Hoechst 33342 staining based fluorescence microscopy; type: functional, cell-based
PC-3 [9] = assay: Induction of apoptosis in human PC-3 cells assessed as increase in caspase-3 activity at 10 uM incubated for 24 hrs in presence of Ac-DEVD-CHO by Hoechst 33342 dye based fluorescence assay; type: functional, cell-based
PC-3 [10] = assay: Induction of apoptosis in human PC-3 cells assessed as increase in caspase-3 activity at 10 uM incubated for 24 hrs by Hoechst 33342 staining based fluorescence microscopy; type: functional, cell-based
MCF7 [11] = assay: Induction of apoptosis in human MCF7 cells assessed as increase in caspase-3 activity at 10 uM incubated for 24 hrs in presence of Ac-DEVD-CHO by Hoechst 33342 dye based fluorescence assay; type: functional, cell-based
MCF7 [12] = assay: Induction of apoptosis in human MCF7 cells assessed as increase in cleaved PARP incubated for 24 hrs by Western blot analysis; type: functional, cell-based
PC-3 [13] = assay: Induction of apoptosis in human PC-3 cells assessed as increase in cleaved PARP incubated for 24 hrs by Western blot analysis; type: functional, cell-based; settings: dose 3-30 µM
PC-3 [14] = assay: Induction of apoptosis in human PC-3 cells assessed as increase in caspase-3 activity incubated for 24 hrs by caspase-3 substrate and Hoechst 33342 dye based fluorescence assay; type: functional, cell-based; settings: dose 1-10 µM

Structure (SMILES)	viability at 30 µM (MCF7 [1]) [%]	viability at 30 µM (PC-3 [2]) [%]	also measured
Cc1ccc([C@H]2N=Cc3cccn3[C@@H]2C(=O)c2ccccc2)cc1 (relative stereo)	108	108	
O=C(c1ccc(F)cc1)[C@@H]1[C@@H](c2ccco2)N=Cc2cccn21 (relative stereo)	70	99.4	
O=C(c1ccc(F)cc1)[C@@H]1[C@@H](c2ccc(Br)cc2)N=Cc2cccn21 (relative stereo)	31.1	18.5	IC50 (PC-3 [3]): 16.4 µM
O=C(c1ccccc1)[C@@H]1[C@@H](c2ccc(Br)cc2)N=Cc2cccn21 (relative stereo)	99.9	83.3	
COc1cccc(C(=O)[C@@H]2[C@@H](c3ccncc3)N=Cc3cccn32)c1 (relative stereo)	95.5	91.4	
Cc1ccc([C@H]2N=Cc3cccn3[C@@H]2C(=O)c2ccc(Cl)cc2)cc1 (relative stereo)	100	104	
O=C(c1ccc(Cl)cc1)[C@@H]1[C@@H](c2ccccc2)N=Cc2cccn21 (relative stereo)	99.3	99.9	
COc1cccc(C(=O)[C@@H]2[C@@H](c3ccc(Cl)cc3)N=Cc3cccn32)c1 (relative stereo)	118	99.6	
COc1ccccc1[C@H]1N=Cc2cccn2[C@@H]1C(=O)c1ccc(F)cc1 (relative stereo)	69.3	86.4	
O=C(c1ccccc1)[C@@H]1[C@@H](c2ccc([N+](=O)[O-])cc2)N=Cc2cccn21 (relative stereo)	85.1	86.9	
O=C(c1ccc(Br)cc1)[C@@H]1[C@@H](c2ccccn2)N=Cc2cccn21 (relative stereo)	67.5	73.2	
O=C(c1ccccc1)[C@@H]1[C@@H](c2ccccc2)N=Cc2cccn21 (relative stereo)	104	106	
COc1ccccc1[C@H]1N=Cc2cccn2[C@@H]1C(=O)c1ccc(Cl)cc1 (relative stereo)	96.5	99.5	
O=C(c1ccc(F)cc1)[C@@H]1[C@@H](c2ccccc2)N=Cc2cccn21 (relative stereo)	70.3	76	
COc1cccc(C(=O)[C@@H]2[C@@H](c3ccccc3)N=Cc3cccn32)c1 (relative stereo)	104	104	
COc1ccc([C@H]2N=Cc3cccn3[C@@H]2C(=O)c2cccc(OC)c2)cc1 (relative stereo)	77.9	83.8	
C[N+]1=Cc2cccn2[C@H](C(=O)c2ccc(Br)cc2)[C@H]1c1ccccc1 (relative stereo)	98.1	97.9	
COc1ccc(C(=O)[C@@H]2[C@@H](c3ccc(C)cc3)N=Cc3cccn32)cc1 (relative stereo)	77.4	81.3	
COc1ccc(C(=O)C[N+]2=Cc3cccn3[C@H](C(=O)c3ccc(Br)cc3)[C@H]2c2ccccc2)cc1 (relative stereo)	54.5	56	
CCOC(=O)C[N+]1=Cc2cccn2[C@H](C(=O)c2ccc(Br)cc2)[C@H]1c1ccccc1 (relative stereo)	24	10.7	IC50 (PC-3 [3]): 8.74 µM
O=C(c1ccc(F)cc1)[C@@H]1[C@@H](c2ccncc2)N=Cc2cccn21 (relative stereo)	78.5	100	
COc1ccc(C(=O)[C@@H]2[C@@H](c3ccco3)N=Cc3cccn32)cc1 (relative stereo)	99.9	55.7	

Structure (SMILES)	viability at 30 µM (MCF7 [1]) [%]	viability at 30 µM (PC-3 [2]) [%]	also measured
COc1ccc([C@H]2N=Cc3cccn3[C@@H]2C(=O)c2ccc(F)cc2)cc1OC (relative stereo)	72.8	96.7	
O=C(c1ccc(Br)cc1)[C@@H]1[C@@H](c2ccccc2)N=Cc2cccn21 (relative stereo)	66.9	68.5	
O=C(c1ccc(Br)cc1)[C@@H]1[C@@H](c2ccco2)N=Cc2cccn21 (relative stereo)	96.5	99.2	
O=C(c1ccc(Br)cc1)c1c(-c2ccccc2)ncc2cccn12	37	5.8	IC50 (PC-3 [3]): 7.17 µM
COc1ccccc1[C@H]1N=Cc2cccn2[C@@H]1C(=O)c1ccccc1 (relative stereo)	107	95.5	
O=C(c1ccc(Cl)cc1)[C@@H]1[C@@H](c2ccc[nH]2)N=Cc2cccn21 (relative stereo)	102	102	
O=C(c1ccccc1)[C@@H]1[C@@H](c2ccco2)N=Cc2cccn21 (relative stereo)	95.3	59	
Cc1ccc([C@H]2N=Cc3cccn3[C@@H]2C(=O)c2ccc(F)cc2)cc1 (relative stereo)	111	99.8	
O=C(C[N+]1=Cc2cccn2[C@H](C(=O)c2ccc(Br)cc2)[C@H]1c1ccccc1)c1ccc(F)cc1 (relative stereo)	33.8	10.7	
O=C(C[N+]1=Cc2cccn2[C@H](C(=O)c2ccc(Br)cc2)[C@H]1c1ccccc1)c1ccc(Cl)cc1 (relative stereo)	82.5	80.8	
COc1ccc(C(=O)[C@@H]2[C@@H](c3ccc(Br)cc3)N=Cc3cccn32)cc1 (relative stereo)	100	96.4	
O=C(c1ccc(Br)cc1)[C@@H]1[C@@H](c2ccccc2)[N+](Cc2ccccc2)=Cc2cccn21 (relative stereo)	98.1	97.9	
COc1ccc([C@@H]2[C@@H](C(=O)c3ccc(Br)cc3)n3cccc3C=[N+]2CC(=O)c2ccccc2)cc1 (relative stereo)	6.4	6.3	IC50 (MCF7 [4]): 2.45 µM; inhibition (PC-3 [5]): Dose-dependent effect; inhibition (MCF7 [6]): Dose-dependent effect; IC50 (PC-3 [3]): 2.19 µM
COc1ccc([C@H]2N=Cc3cccn3[C@@H]2C(=O)c2ccc(Br)cc2)cc1 (relative stereo)	39.8	28.6	IC50 (PC-3 [3]): 20.6 µM
O=C(c1ccccc1)[C@@H]1[C@@H](c2cc3ccccc3[nH]2)N=Cc2cccn21 (relative stereo)	106	92.1	
O=C(c1ccccc1)[C@@H]1[C@@H](c2ccc(Cl)cc2)N=Cc2cccn21 (relative stereo)	102	84.8	
COc1cc(OC)cc([C@H]2N=Cc3cccn3[C@@H]2C(=O)c2ccccc2)c1 (relative stereo)	102	106	
Cc1ccc([C@H]2N=Cc3cccn3[C@@H]2C(=O)c2ccc(Br)cc2)cc1 (relative stereo)	99.9	99	
O=C(C[N+]1=Cc2cccn2[C@H](C(=O)c2ccc(F)cc2)[C@H]1c1ccc(Br)cc1)c1ccccc1 (relative stereo)	3.6	3.4	IC50 (MCF7 [4]): 1.95 µM; Activity (MCF7 [7]): Dose-dependent effect; inhibition (PC-3 [5]): Dose-dependent effect; Activity (MCF7 [8]): Active; Activity (PC-3 [9]): inactive; Activity (PC-3 [10]): Active; Activity (MCF7 [11]): inactive; inhibition (MCF7 [6]): Dose-dependent effect; Activity (MCF7 [12]): Dose-dependent effect; Activity (PC-3 [13]): Dose-dependent effect; IC50 (PC-3 [3]): 1.18 µM; Activity (PC-3 [14]): Dose-dependent effect
COc1ccc(C(=O)[C@@H]2[C@@H](c3ccc(OC)c(OC)c3)N=Cc3cccn32)cc1 (relative stereo)	98	102	
O=C(C[N+]1=Cc2cccn2[C@H](C(=O)c2ccc(Br)cc2)[C@H]1c1ccccc1)c1ccccc1 (relative stereo)	25.5	9.1	IC50 (MCF7 [4]): 3.65 µM; Activity (MCF7 [7]): Dose-dependent effect; inhibition (PC-3 [5]): Dose-dependent effect; Activity (MCF7 [8]): Active; Activity (PC-3 [9]): inactive; Activity (PC-3 [10]): Active; Activity (MCF7 [11]): inactive; inhibition (MCF7 [6]): Dose-dependent effect; Activity (MCF7 [12]): Dose-dependent effect; Activity (PC-3 [13]): Dose-dependent effect; IC50 (PC-3 [3]): 3.45 µM; Activity (PC-3 [14]): Dose-dependent effect
